Molecular target: T1, p300 (Homo sapiens, UniProt Q09472)
T1 construct: host or cells: A549 P300 HiBit cells
Assay: P300 degradation, HiBit technology in A549 P300 HiBit cells (2 h)
Format: cell-based
Details: 2 hrs post treatment; for Dmax: A549, A549 P300 HiBit cells; for DC50: A549 P300 HiBit cells
Method in brief: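 A549 HiBiT knock-in cells seeded overnight at 37 °C, 5% CO2 in F-12K with 10% heat-inactivated FBS, then given serial dilutions of compound from 10 mM DMSO stocks. Lytic HiBiT detection reagent added for 10 min at room temperature; luminescence read. Potency and Dmax reported.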

T1 sequence (Q09472 whole entry): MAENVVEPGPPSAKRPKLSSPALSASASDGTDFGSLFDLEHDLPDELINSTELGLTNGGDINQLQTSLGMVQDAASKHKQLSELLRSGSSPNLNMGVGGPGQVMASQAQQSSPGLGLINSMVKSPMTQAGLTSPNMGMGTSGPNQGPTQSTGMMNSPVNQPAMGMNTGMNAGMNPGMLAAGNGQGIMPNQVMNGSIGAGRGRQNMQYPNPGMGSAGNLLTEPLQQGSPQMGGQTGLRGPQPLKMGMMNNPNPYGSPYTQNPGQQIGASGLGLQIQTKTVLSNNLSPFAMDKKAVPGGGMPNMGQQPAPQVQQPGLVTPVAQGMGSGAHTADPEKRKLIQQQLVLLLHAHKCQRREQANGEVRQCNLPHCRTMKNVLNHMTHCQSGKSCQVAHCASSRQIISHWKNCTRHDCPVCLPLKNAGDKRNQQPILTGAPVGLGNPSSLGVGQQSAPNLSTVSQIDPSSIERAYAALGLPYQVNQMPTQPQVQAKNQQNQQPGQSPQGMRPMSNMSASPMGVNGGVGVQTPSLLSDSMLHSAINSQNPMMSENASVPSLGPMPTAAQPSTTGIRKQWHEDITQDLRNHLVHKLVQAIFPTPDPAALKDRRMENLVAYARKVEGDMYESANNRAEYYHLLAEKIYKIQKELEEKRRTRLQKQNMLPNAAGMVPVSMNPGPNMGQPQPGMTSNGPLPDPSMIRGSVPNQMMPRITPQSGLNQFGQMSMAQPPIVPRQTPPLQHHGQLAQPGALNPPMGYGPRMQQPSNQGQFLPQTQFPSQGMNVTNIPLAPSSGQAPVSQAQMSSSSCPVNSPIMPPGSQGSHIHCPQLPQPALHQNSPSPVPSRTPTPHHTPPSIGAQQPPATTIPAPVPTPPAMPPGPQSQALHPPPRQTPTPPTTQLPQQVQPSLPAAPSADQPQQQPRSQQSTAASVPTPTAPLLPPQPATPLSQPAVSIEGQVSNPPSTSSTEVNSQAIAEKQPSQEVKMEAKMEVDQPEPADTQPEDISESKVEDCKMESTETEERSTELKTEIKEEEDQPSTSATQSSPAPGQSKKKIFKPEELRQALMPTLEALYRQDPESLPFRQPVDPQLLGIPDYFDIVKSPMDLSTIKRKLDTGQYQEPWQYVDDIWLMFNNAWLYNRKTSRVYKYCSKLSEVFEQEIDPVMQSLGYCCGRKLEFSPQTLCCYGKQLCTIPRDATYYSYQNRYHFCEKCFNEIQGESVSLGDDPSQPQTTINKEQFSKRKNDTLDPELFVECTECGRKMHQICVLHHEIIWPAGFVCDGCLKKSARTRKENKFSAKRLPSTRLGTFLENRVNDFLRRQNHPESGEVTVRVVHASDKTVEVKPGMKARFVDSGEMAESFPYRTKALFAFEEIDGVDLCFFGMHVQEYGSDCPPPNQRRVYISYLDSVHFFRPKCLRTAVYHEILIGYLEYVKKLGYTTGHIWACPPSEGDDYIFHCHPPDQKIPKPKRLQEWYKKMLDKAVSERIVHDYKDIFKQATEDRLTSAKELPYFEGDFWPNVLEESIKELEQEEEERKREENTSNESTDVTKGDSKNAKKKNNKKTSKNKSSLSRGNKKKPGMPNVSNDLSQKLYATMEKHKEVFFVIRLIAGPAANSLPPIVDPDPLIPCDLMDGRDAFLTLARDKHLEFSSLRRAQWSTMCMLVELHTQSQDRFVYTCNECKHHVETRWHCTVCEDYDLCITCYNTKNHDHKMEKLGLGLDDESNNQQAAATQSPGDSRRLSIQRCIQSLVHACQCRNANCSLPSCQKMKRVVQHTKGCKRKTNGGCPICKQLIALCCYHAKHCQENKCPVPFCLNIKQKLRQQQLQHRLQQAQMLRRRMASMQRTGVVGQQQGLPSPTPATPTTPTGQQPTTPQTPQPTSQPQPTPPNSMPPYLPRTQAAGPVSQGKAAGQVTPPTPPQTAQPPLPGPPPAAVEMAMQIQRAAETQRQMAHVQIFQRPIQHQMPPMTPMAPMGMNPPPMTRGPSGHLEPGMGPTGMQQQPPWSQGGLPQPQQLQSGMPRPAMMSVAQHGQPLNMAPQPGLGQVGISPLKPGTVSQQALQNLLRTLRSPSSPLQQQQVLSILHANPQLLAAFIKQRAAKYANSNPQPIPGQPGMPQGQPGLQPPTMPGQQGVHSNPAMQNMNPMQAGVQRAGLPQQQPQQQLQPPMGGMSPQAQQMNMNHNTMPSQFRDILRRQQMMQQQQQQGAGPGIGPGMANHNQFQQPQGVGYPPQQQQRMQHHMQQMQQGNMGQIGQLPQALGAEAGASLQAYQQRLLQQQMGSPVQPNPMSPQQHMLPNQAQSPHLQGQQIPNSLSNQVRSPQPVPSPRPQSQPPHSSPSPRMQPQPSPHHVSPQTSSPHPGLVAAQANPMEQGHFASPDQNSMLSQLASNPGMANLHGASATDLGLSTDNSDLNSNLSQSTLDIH

Row | Compound | Dmax [%] | DC50 [nM]
1 | Cn1c(=O)n(C)c2c(C3CCOCC3)nc(N3CCCc4nc(-c5ccc(C(=O)NCC#Cc6ccc7occ(C8CCC(=O)NC8=O)c7c6)nc5)ncc43)cc21 (centres unmarked) [Example A78, 5-(5-(1,3-dimethyl-2-oxo-4-(tetrahydro-2H-pyran-4-yl)-2,3-dihydro-1H-imidazo[4,5-c]pyridin-6-yl)-5,6,7,8-tetrahydro-pyrido[3,2-d]pyrimidin-2-yl)-N-(3-(3-(2,6-dioxopiperidin-3-yl)benzofuran-5-yl)prop-2-yn-1-yl)picolinamide] | < 20 | > 1000
2 | Cc1cc2c(N3CCCc4nc(-c5ccc(C(=O)NCC#Cc6ccc7occ(C8CCC(=O)NC8=O)c7c6)nc5)ncc43)nc(N3CC[Si](C)(C)CC3)cc2n(C)c1=O (centres unmarked) [Example B139, 5-(5-(7-(4,4-dimethyl-1,4-azasilinan-1-yl)-1,3-dimethyl-2-oxo-1,2-dihydro-1,6-naphthyridin-5-yl)-5,6,7,8-tetrahydropyrido[3,2-d]pyrimidin-2-yl)-N-(3-(3-(2,6-dioxopiperidin-3-yl)benzofuran-5-yl)prop-2-yn-1-yl)picolinamide] | 60 to 79 | 100 to 999
3 | Cn1c(=O)ccc2c(N3CCCc4nc(-c5ccc(C(=O)NCC#Cc6ccc7occ(C8CCC(=O)NC8=O)c7c6)nc5)ncc43)cc(C3CCOCC3)cc21 (centres unmarked) [Example B105, N-(3-(3-(2,6-dioxopiperidin-3-yl)benzofuran-5-yl)prop-2-yn-1-yl)-5-(5-(1-methyl-2-oxo-7-(tetrahydro-2H-pyran-4-yl)-1,2-dihydro-quinolin-5-yl)-5,6,7,8-tetrahydropyrido[3,2-d]pyrimidin-2-yl)picolinamide] | < 20 | > 1000

The remaining lines, values ahead:

Row | Dmax [%] | DC50 [nM] | Compound
4 | > 80 | < 1 | Cc1cc2c(N3CCN(C)c4cc(-c5ccc(C(=O)NCC#Cc6cc7c(C8CCC(=O)NC8=O)cccc7o6)nc5)ncc43)cccc2n(C)c1=O (centres unmarked) [Example B114, 5-(4-(1,3-dimethyl-2-oxo-1,2-dihydroquinolin-5-yl)-1-methyl-1,2,3,4-tetrahydropyrido [3,4-b]pyrazin-7-yl)-N-(3-(4-(2,6-dioxo-piperidin-3-yl)benzofuran-2-yl)prop-2-yn-1-yl)picolinamide]
5 | < 20 | > 1000 | Cc1nc2c(N3CCCc4nc(-c5ccc(C(=O)NCC#Cc6ccc7occ(C8CCC(=O)NC8=O)c7c6)nc5)ncc43)cc(C3CCOCC3)cc2n(C)c1=O (centres unmarked) [Example B78, 5-(5-(1,3-dimethyl-2-oxo-7-(tetrahydro-2H-pyran-4-yl)-1,2-dihydroquinoxalin-5-yl)-5,6,7,8-tetrahydropyrido[3,2-d]pyrimidin-2-yl)-N-(3-(3-(2,6-dioxopiperidin-3-yl)benzofuran-5-yl)prop-2-yn-1-yl)picolinamide]
6 | > 80 | 10 to 99 | Cc1cc2c(N3CCCc4cc(-c5ccc(C(=O)NCC#Cc6ccc7occ(C8CCC(=O)NC8=O)c7c6)nc5)c(F)cc43)cc(C(C)C)cc2n(C)c1=O (centres unmarked) [Example B134, N-(3-(3-(2,6-dioxopiperidin-3-yl)benzofuran-5-yl)prop-2-yn-1-yl)-5-(7-fluoro-7′-isopropyl-1′,3′-dimethyl-2′-oxo-1′,2′,3,4-tetrahydro-2H-[1,5′-biquinolin]-6-yl)picolinamide]
7 | > 80 | 10 to 99 | Cc1cc2c(N3CCCc4nc(-c5ccc(C(=O)NCC#Cc6cc7c(C8CCC(=O)NC8=O)cccc7o6)nc5)ncc43)nc(N3CC4CC4C3)cc2n(C)c1=O (centres unmarked) [Example B172, 5-(5-(7-(3-azabicyclo[3.1.0]hexan-3-yl)-1,3-dimethyl-2-oxo-1,2-dihydro-1,6-naphthyridin-5-yl)-5,6,7,8-tetrahydropyrido[3,2-d]pyrimidin-2-yl)-N-(3-(4-(2,6-dioxopiperidin-3-yl)benzofuran-2-yl)prop-2-yn-1-yl)picolinamide]

Reference: patent US20250114345A1, “COMPOUNDS AND COMPOSITIONS AS CBP/P300 DEGRADERS AND USES THEREOF” (Oncopia Therapeutics, Inc. d/b/a/ SK Life Science Labs, priority 2023, published 2025)
